Earlier results, collected in paper PMC9762682, “Tocotrienols: Exciting Biological and Pharmacological Properties of Tocotrienols and Naturally Occurring Compounds, Part II” (Annals of clinical case reports, 2022).
pIC50: −log10 of the molar value. Where two headings read alike, the source gives them in different places. Marks after values point to notes of the source that are not given here.

Experiments:
[1] = parameters: method as in ref 14 = [14]; PMID 27493840; doi:10.4172/2155-9880.1000434; 14. Qureshi AA , Khan DA , Saleem S , Silswal N , Trias AM , Tan B , Pharmacokinetics and bioavailability of Annatto δ-tocotrienol in healthy fed subjects . J Clin Exp Cardiol . 2015; 6 : 11 . 10.417
TNF-α [2] = details: LPS-induced macrophages of wild type (C57BL/6) control group
TNF-α [3] = details: LPS-induced macrophages of PPAR-α knockout female mice
Breast cancer cells = system: Breast cancer cells; parameters: method as in PMID 29606130; value at effective dose: unit not given here;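 on pIC50: anti-proliferation of cancer cells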
[4] = system: plasma total mRNAs gene expression; parameters: method as in PMID 30031388
[5] = plasma tocol after single 125 mg δ-tocotrienol dose, healthy fed subjects
[6] = plasma tocol after single 125 mg δ-tocotrienol dose, healthy fed subjects, listed as δ-tocotrienol
[7] = plasma tocol after single 250 mg δ-tocotrienol dose, healthy fed subjects
[8] = plasma tocol after single 250 mg δ-tocotrienol dose, healthy fed subjects, listed as δ-tocotrienol
[9] = plasma tocol after single 500 mg δ-tocotrienol dose, healthy fed subjects
[10] = plasma tocol after single 500 mg δ-tocotrienol dose, healthy fed subjects, listed as δ-tocotrienol
[11] = hepatitis C patients, plasma total mRNAs, pre-dose vs post-dose
[12] = serum, two capsules/d for 24-weeks

Time of clearance (Cl-T) ([1]; 125 mg/d Annatto δ-tocotrienol): 0.049 h⁻¹
Time of clearance (Cl-T) ([1]; 250 mg/d Annatto δ-tocotrienol): 0.045 h⁻¹
Time of clearance (Cl-T) ([1]; 500 mg/d Annatto δ-tocotrienol): 0.030 h⁻¹
time of appearance in the plasma ([1]; after δ-tocotrienol administration to well-fed subjects): > 2 h
Apparent volume of distribution (Vd/f) [1, 5]: 0.179 ± 0.035^a
Elimination of Half-life time (t1/2) [1, 5]: 1.74 ± 0.36^a h
Elimination rate constant (ke) [1, 5]: 0.381 ± 0.059^a h-1
Plasma Peak Concentration (Cmax) [1, 5]: 828.82 ± 24.28^a ng/mL
Time of clearance (Cl-T) [1, 5]: 0.049 ± 0.004^a I/h
Time to achieve plasma peak (Tmax) [1, 5]: 3.00 h
Area Under Curve-0 - 10 (AUC0-10) [1, 6]: 2460 ng·h/mL
Plasma Peak Concentration (Cmax) [1, 6]: 829 ng/mL
Apparent volume of distribution (Vd/f) [1, 7]: 0.114 ± 0.011^b
Elimination of Half-life time (t1/2) [1, 7]: 1.39 ± 0.22^a h
Elimination rate constant (ke) [1, 7]: 0.401 ± 0.039^b h-1
Plasma Peak Concentration (Cmax) [1, 7]: 1920.36 ± 57.99^b ng/mL
Time of clearance (Cl-T) [1, 7]: 0.045 ± 0.002^a I/h
Time to achieve plasma peak (Tmax) [1, 7]: 3.00 h
Area Under Curve-0 - 10 (AUC0-10) [1, 8]: 5410 ng·h/mL
Plasma Peak Concentration (Cmax) [1, 8]: 1920 ng/mL
Apparent volume of distribution (Vd/f) [1, 9]: 0.613 ± 0.102^c
Elimination of Half-life time (t1/2) [1, 9]: 2.54 ± 0.05^b h
Elimination rate constant (ke) [1, 9]: 0.050 ± 0.008^c h-1
Plasma Peak Concentration (Cmax) [1, 9]: 3278.00 ± 124.13^c ng/mL
Time of clearance (Cl-T) [1, 9]: 0.030 ± 0.001^b I/h
Area Under Curve-0 - 10 (AUC0-10) [1, 10]: 15000 ng·h/mL
Elimination rate constant (ke) [1, 10]: 0.265 h⁻¹
Time to achieve plasma peak (Tmax) [1, 10]: 6 h
bioavailability ([1]; when tocotrienols are supplemented in absence of tocopherols): better bioavailability
pIC50 (Breast cancer cells): 5.00
percentage of control at IC50 dose (Breast cancer cells): 49%
Expr. Fold Change: CYP2R1 [4, 11]: −8.682
Structure (SMILES): CC(C)=CCC/C(C)=C/CC/C(C)=C/CC[C@]1(C)CCc2cc(O)cc(C)c2O1 [δ-Tocotrienol]
effect on secretion of TNF-α (TNF-α [2]): inhibition
effect on secretion of TNF-α (TNF-α [3]): activation
effective dose (Breast cancer cells): 20 µM
percentage of control at effective dose (Breast cancer cells): 56%
value at effective dose (Breast cancer cells): 10.7 ± 0.6
side effects in hepatitis C patients ([4]; chronic hepatitis C patients): without any side-effect
Expr. Fold Change: AKR1D1 [4, 11]: 14.056
Expr. Fold Change: APOBEC3A [4, 11]: −8.163
Expr. Fold Change: ATF4 [4, 11]: −9.515
Expr. Fold Change: ATG3 [4, 11]: −8.376
Expr. Fold Change: ATP1A1 [4, 11]: −8.014
Expr. Fold Change: CERS3 [4, 11]: 19.082
Expr. Fold Change: COX14 [4, 11]: −9.447
Expr. Fold Change: CREB1 [4, 11]: −8.452
Expr. Fold Change: CXCR2 [4, 11]: −8.208
Expr. Fold Change: CYB5R4 [4, 11]: −8.367
Expr. Fold Change: FRS2 [4, 11]: −9.962
Expr. Fold Change: GPR65 [4, 11]: −9.054
Expr. Fold Change: GPS2 [4, 11]: −9.56
Expr. Fold Change: GTPBP8 [4, 11]: −10.19
Expr. Fold Change: GYS1 [4, 11]: −9.027
Expr. Fold Change: HBG1 [4, 11]: 17.945
Expr. Fold Change: HBG2 [4, 11]: 11.413
Expr. Fold Change: HHIPL2 [4, 11]: 28.710
Expr. Fold Change: HIST1H2AD [4, 11]: 1804955.068
Expr. Fold Change: HSP90AB1 [4, 11]: −8.049
Expr. Fold Change: HSPA14 [4, 11]: −10.978
Expr. Fold Change: ID2 [4, 11]: −14.133
Expr. Fold Change: IFNGR2 [4, 11]: −13.844
Expr. Fold Change: IGF2R [4, 11]: −8.68
Expr. Fold Change: IGSF6 [4, 11]: −8.712
Expr. Fold Change: IL2RG [4, 11]: −16.787
Expr. Fold Change: IL16 [4, 11]: −8.239
Expr. Fold Change: IL27RA [4, 11]: −12.004
Expr. Fold Change: ILF2 [4, 11]: −9.105
Expr. Fold Change: IRF2 [4, 11]: −22.655
Expr. Fold Change: KLRC4-KLRK1/KLRK1 [4, 11]: −1565687.642
Expr. Fold Change: MKX [4, 11]: 9.573
Expr. Fold Change: MT-TQ [4, 11]: 14.252
Expr. Fold Change: NDUFA11 [4, 11]: −8.686
Expr. Fold Change: NDUFB1 [4, 11]: −8.566
Expr. Fold Change: NDUFB9 [4, 11]: −8.354
Expr. Fold Change: NFIL3 [4, 11]: −9.568
Expr. Fold Change: OSBPL11 [4, 11]: −9.201
Expr. Fold Change: P4HA3 [4, 11]: 8.686
Expr. Fold Change: PDE3B [4, 11]: −8.568
Expr. Fold Change: PECAM1 [4, 11]: −9.552
Expr. Fold Change: PIAS1 [4, 11]: −9.326
Expr. Fold Change: PIBF1 [4, 11]: −9.876
Expr. Fold Change: PRPF18 [4, 11]: −8.777
Expr. Fold Change: PSMA5 [4, 11]: −9.31
Expr. Fold Change: PSMB4 [4, 11]: −10.119
Expr. Fold Change: PSMB8 [4, 11]: −9.709
Expr. Fold Change: PSMC3 [4, 11]: −8.346
Expr. Fold Change: PTGS2 [4, 11]: −25.841
Expr. Fold Change: RAP2C [4, 11]: −9.792
Expr. Fold Change: RPP38 [4, 11]: 24.946
Expr. Fold Change: RPS26 [4, 11]: −9.456
Expr. Fold Change: SCP2 [4, 11]: −13.672
Expr. Fold Change: SERP1 [4, 11]: −8.872
Expr. Fold Change: SFPQ [4, 11]: −9.469
Expr. Fold Change: TLR8 [4, 11]: −11.975
Expr. Fold Change: TNFAIP8 [4, 11]: −10.974
Expr. Fold Change: TNFRSF1B [4, 11]: −8.746
Expr. Fold Change: TRAF7 [4, 11]: −9.341
Expr. Fold Change: TSPAN15 [4, 11]: 11.523
Expr. Fold Change: TUSC2 [4, 11]: −15.922
Expr. Fold Change: UBA52 [4, 11]: −10.176
Expr. Fold Change: UBE2J1 [4, 11]: −8.874
Expr. Fold Change: UBE4A [4, 11]: −10.189
Expr. Fold Change: UBP1 [4, 11]: −9.718
Expr. Fold Change: USP15 [4, 11]: −10.16
Expr. Fold Change: USP19 [4, 11]: −10.713
Expr. Fold Change: USP25 [4, 11]: −9.911
Expr. Fold Change: VEGFA [4, 11]: −8.933
Expr. Fold Change: mir-140 [4, 11]: −5668.259
Expr. Fold Change: mir-877 [4, 11]: −4497.07
Expr. Fold Change: mir-1250 [4, 11]: −4755.79
expression of pro-inflammatory cytokines (TNF-α, VCAM1, proteasome subunits) ([4]; plasma total mRNAs after δ-tocotrienol feeding to hepatitis C patients): significant inhibition
expression of ICAM1 and IFN-γ ([4]; plasma total mRNAs after δ-tocotrienol feeding to hepatitis C patients, post-treatment): induction
Fasting Glucose, Post-dose, percentage of control (pre-dose) in parentheses (people with T2DM; [12]): 93%
MDA, Post-dose (people with T2DM; [12]): 3.22 µmol/L
MDA, Post-dose, percentage of control (pre-dose) in parentheses (people with T2DM; [12]): 89%
hs-CRP, Post-dose (people with T2DM; [12]): 3.10 mg/L
hs-CRP, Post-dose, percentage of control (pre-dose) in parentheses (people with T2DM; [12]): 88%
Fasting Glucose, Post-dose (people with T2DM; serum, two capsules/d for 24-weeks (δ-tocotrienol 250 mg, vitamin D3 5000 IU, resveratrol 250 mg per capsule)): 6.85 mmol/L
Fasting HbA1c, Post-dose (people with T2DM; two capsules/d for 24-weeks): 7.79%
Fasting HbA1c, Post-dose, percentage of control (pre-dose) in parentheses (people with T2DM; two capsules/d for 24-weeks): 92%
HOMA-IR, Post-dose (people with T2DM; two capsules/d for 24-weeks): 4.51
HOMA-IR, Post-dose, percentage of control (pre-dose) in parentheses (people with T2DM; two capsules/d for 24-weeks): 86%
